Measured values taken from patent publication US6335398B1, “Super absorbent polymer composition” (priority 1994, dated 2002).

What was measured:
[1] = pKCu, stability constant of the Cu2+ chelate by Cu ion electrode method; type: physicochemical
Method: The pKCu was obtained by the following procedures. A Cu ion electrode method was used (Orion pH/ion analyzer; Cu ion electrode). A 0.1M triethanolamine-HCl (pH 8) buffer solution was used.
First of all, standard copper ion buffer solutions [400, 320, 240, 160 or 80 ppm (reduced to Cu^2+)] were prepared using CuCl2.2H2O, and a calibration curve was prepared using a copper ion electrode.
Then, a sample weighing 0.1 g was dissolved in 100 ml of a buffer solution in a measuring flask. To the sample solution was added dropwise a 0.05M CuCl2.2H2O buffer solution (pH 8) from a burette in 0.6 ml portions, and the potential of the Cu ion electrode was measured. The titration was conducted until the potential exceeded the level corresponding to 400 ppm (reduced to Cu^2+). Blank measurements were also carried out. A free Cu ion concentration was calculated from the potential, and the calculated value was corrected for the change in amount of the liquid of the measurement system due to the titration. Assuming that addition of an equimolar amount of Cu to a sample produces a 1:1 (by mole) complex, pKCu can be obtained from formula 1:
Stability Constant KML=[ML]/([M][L])
[ML]: Concentration of metal/chelating agent complex
[M]: Concentration of free metal ion
[L]: Concentration of free chelating agent

[2] = Solubility of copper salt of chelating compound in physiological saline; conditions: stirred 30 minutes
[3] = log stability constant with Cu2+, 25° C., 0.1M triethanolamine-HCl pH 8

Compound | pKCu (25° C.) ([1]; pH 8) | pKCu (25° C.) [1, 3] | Solubility of Cu Salt (25° C.) [2] [wt %]
O=C(O)CN(CCN(CC(=O)O)CC(=O)O)CC(=O)O [EDTA, ethylenediaminetetraacetic acid, reference compound] | 18.79 |  | 
CC(C)c1cccc(O)c(=O)c1 [β-Thujaplicin, β-thujaplicin] |  | 7.9 | <0.0001
CC(C)c1ccc(O)c(=O)cc1 [γ-Thujaplicin, γ-thujaplicin] |  | 7.9 | 
O=C([O-])CC(O)(CC(=O)[O-])C(=O)[O-].[Na+].[Na+].[Na+] [Trisodium Citrate, reference compound] |  | 5.2 | 
Monooleyl Phosphate |  | 3.3 | 
O=P(O)(O)OP(=O)(O)OP(=O)(O)O [Sodium Tripolyphosphate, reference compound] |  | 6.8 | 1
Monooleyl Citrate |  | 6.4 | 
